Measurements from publication PMC5643462, “Encrypted Antimicrobial Peptides from Plant Proteins” (Scientific Reports, 2017).
In brackets after ≈: the same amount, converted by molar mass. No end group written: not given here.

Assays:
Staphylococcus aureus [1] = experiment: Microbicidal activity (minimal killing concentration), plating on agar; type: cell-based, Staphylococcus aureus ATCC 25923; conditions: 10 µL of MIC and raising concentrations up to 256 µM plated on Mueller-Hinton agar; 37 °C, 24 h; no growth; mean ± SD, 3 biological replicates
Procedure: (§1) The microbicidal activity of the IAPS was also evaluated. […] YPD agar and Mueller-Hinton agar were used for fungi/yeasts and bacteria, respectively. Meanwhile, susceptibility microplates were incubated again to evaluate if there would be any growing after a longer period. For both approaches, the minimal killing concentration (MKC) was defined as the concentration that no growth was observed after incubation. Three biological replicates were performed for each test.
(§2) Supplementary Material 07, Table S5
(§3) Table S5. Microorganisms and growth conditions.
(§4) Microorganisms Incubation Incubation Starting cell Growth Medium
(§5) Temperature (°C) Time (h) concentration
(§6) Erwinia carotovora 28 24 5.0 x 10 5 Mueller -Hinton
(§7) Xanthomonas campestris pv. citri 28 24 5.0 x 10 5 Mueller -Hinton
(§8) Pseudomonas syringae pv. tabaci 28 24 5.0 x 10 5 Mueller -Hinton

Escherichia coli [2] = experiment: as above; type: cell-based, Escherichia coli ATCC 25922; conditions: 10 µL of MIC and raising concentrations up to 256 µM plated on Mueller-Hinton agar; 37 °C, 24 h; no growth; mean ± SD, 3 biological replicates
Procedure: as §1, §2, §3, §4

Erwinia carotovora [3] = experiment: as above; type: cell-based; conditions: 10 µL of MIC and raising concentrations up to 256 µM plated on Mueller-Hinton agar; 28 °C, 24 h; no growth; mean ± SD, 3 biological replicates
Procedure: as §1, §2, §3, §4, §5, §6, §7, §8

[4] = test system: Pseudomonas syringae pv. tabaci; experiment: as above; type: cell-based; conditions: 10 µL of MIC and raising concentrations up to 256 µM plated on Mueller-Hinton agar; 28 °C, 24 h; no growth; mean ± SD, 3 biological replicates
Procedure: as §1, §2, §3, §4, §5, §6, §7, §8

Bacillus cereus [5] = experiment: as above; type: cell-based, Bacillus cereus ATCC 14579; conditions: 10 µL of MIC and raising concentrations up to 256 µM plated on Mueller-Hinton agar; 37 °C, 24 h; no growth; mean ± SD, 3 biological replicates
Procedure: as §1, §2, §3, §4

Pseudomonas aeruginosa [6] = experiment: as above; type: cell-based, Pseudomonas aeruginosa ATCC 27853; conditions: 10 µL of MIC and raising concentrations up to 256 µM plated on Mueller-Hinton agar; 37 °C, 24 h; no growth; mean ± SD, 3 biological replicates
Procedure: as §1, §2, §3, §4

Xanthomonas campestris [7] = experiment: as above; type: cell-based, Xanthomonas campestris pv. citri; conditions: 10 µL of MIC and raising concentrations up to 256 µM plated on Mueller-Hinton agar; 28 °C, 24 h; no growth; mean ± SD, 3 biological replicates
Procedure: as §1, §2, §3, §4, §5, §6, §7, §8

Bacillus subtilis [8] = experiment: as above; type: cell-based, Bacillus subtilis ATCC 23857; conditions: 10 µL of MIC and raising concentrations up to 256 µM plated on Mueller-Hinton agar; 37 °C, 24 h; no growth; mean ± SD, 3 biological replicates
Procedure: as §1, §2, §3, §4

Escherichia coli [9] = experiment: microbe, parasite or virus in culture
Procedure: (§9) The susceptibility test of microorganisms was performed to evaluate the inhibitory activity of the IAPs. Protocols M7-A10[50], M27-A3[51] and M38-A2[52] from Clinical & Laboratory Standards Institute (CLSI) were used for bacteria, yeasts and filamentous fungi tests, respectively. Briefly, different concentration of IAPs (256-0.5 µM) were tested against 16 microorganisms, in a final volume of 100 µL. Media conditions, final cell concentration and incubation conditions are presented in Supplementary Material 07, Table S5. Three biological repetitions, with 2 technical replicates each, were performed for each test, on polystyrene flat-bottom 96 wells microplates. The minimum inhibitory concentration (MIC) was defined as the concentration that no cells/hyphae were detected when visualized by optical microscopy.
as §2, §3

Staphylococcus aureus [10] = experiment: microbe, parasite or virus in culture
Procedure: as §9, §2, §3

Bacillus subtilis [11] = experiment: microbe, parasite or virus in culture
Procedure: as §9, §2, §3

Erwinia carotovora [12] = experiment: microbe, parasite or virus in culture; conditions: 24 h
Procedure: as §9, §2, §3

Xanthomonas campestris [13] = experiment: microbe, parasite or virus in culture; conditions: 24 h
Procedure: as §9, §2, §3

Pseudomonas aeruginosa [14] = experiment: microbe, parasite or virus in culture; conditions: Pseudomonas aeruginosa, ATCC27853, 24 h, read-out: Minimum inhibitory concentration, Pseudomonas aeruginosa
Procedure: as §9, §2, §3

Bacillus cereus [15] = experiment: microbe, parasite or virus in culture
Procedure: as §9, §2, §3

[16] = test system: Pseudomonas syringae pv. tabaci; experiment: microbe, parasite or virus in culture; conditions: 24 h
Procedure: as §9, §2, §3

human red blood cells = experiment: Cytotoxicity: hemolysis of human red blood cells; type: cell-based; conditions: SC50 = IAP concentration that at least 50% of red blood cells remain intact; 128 µM–0.5 µM tested; PBS, 30 minutes, 37 °C; absorbance 540 nm
Method in brief: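 Human red blood cells (2.5 × 10^5 cells.mL^−1 final) exposed to 128 µM–0.5 µM peptide in PBS for 30 min at 37 °C with shaking. Hemoglobin release read at 540 nm in supernatant; lysis relative to 0.1% Triton X-100 (100%) after PBS subtraction.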

Rhizoctonia solani = conditions: RPMI 1640 pH 7.0; 28 °C, 48 h; start 2.5 x 10 3; 256-0.5 µM; mean ± SD of 3 biological repetitions (SD 0 not displayed); N/A = no antimicrobial activity observed
Procedure: as §9, §2, §3

[17] = test system: Fusarium oxysporum f.sp. vasinfectum; conditions: RPMI 1640 pH 7.0; 28 °C, 72 h; start 2.5 x 10 3; 256-0.5 µM; mean ± SD of 3 biological repetitions (SD 0 not displayed); N/A = no antimicrobial activity observed
Procedure: as §9, §2, §3

Fusarium solani = conditions: RPMI 1640 pH 7.0; 28 °C, 48 h; start 2.5 x 10 3; 256-0.5 µM; mean ± SD of 3 biological repetitions (SD 0 not displayed); N/A = no antimicrobial activity observed
Procedure: as §9, §2, §3

Fusarium oxysporum = experiment: microbe, parasite or virus in culture; conditions: RPMI 1640 pH 7.0; 28 °C, 48 h; start 2.5 x 10 3; 256-0.5 µM; mean ± SD of 3 biological repetitions (SD 0 not displayed); N/A = no antimicrobial activity observed
Procedure: as §9, §2, §3

Trichoderma asperellum = experiment: microbe, parasite or virus in culture; conditions: RPMI 1640 pH 7.0; 28 °C, 48 h; start 2.5 x 10 3; 256-0.5 µM; mean ± SD of 3 biological repetitions (SD 0 not displayed); N/A = no antimicrobial activity observed
Procedure: as §9, §2, §3

Cryptococcus neoformans = experiment: microbe, parasite or virus in culture; conditions: ATCC 28957; RPMI 1640 pH 7.0; 37 °C, 72 h; start 2.5 x 10^3 cells; 256-0.5 µM; mean ± SD of 3 biological repetitions (SD 0 not displayed); N/A = no antimicrobial activity observed
Procedure: as §9, §2, §3

Ramularia areola = experiment: microbe, parasite or virus in culture; conditions: RPMI 1640 pH 7.0; 25 °C, 120 h; start 2.5 x 10 3; 256-0.5 µM; mean ± SD of 3 biological repetitions (SD 0 not displayed); N/A = no antimicrobial activity observed
Procedure: as §9, §2, §3

Candida albicans = experiment: microbe, parasite or virus in culture; conditions: ATCC 90028; RPMI 1640 pH 7.0; 37 °C, 48 h; start 2.5 x 10^3 cells; 256-0.5 µM; mean ± SD of 3 biological repetitions (SD 0 not displayed); no cells seen by optical microscopy; N/A = no antimicrobial activity observed
Procedure: as §9, §2, §3

[18] = Mueller-Hinton, 28 °C, start 5.0 x 10^5 cells, 256-0.5 µM, mean ± SD of 3 biological repetitions (SD 0 not displayed), N/A = no antimicrobial activity observed

CNC(C)C1CCC(N)C(OC2C(N)CC(N)C(OC3OCC(C)(O)C(NC)C3O)C2O)O1 (centres unmarked) [Gentamicin]
Minimum microbicidal concentration, Staphylococcus aureus (Staphylococcus aureus [1]): 0.52 ± 0.0 µM
Minimum microbicidal concentration, Escherichia coli (Escherichia coli [2]): 0.52 ± 0.0 µM
Minimum microbicidal concentration, Erwinia carotovora (Erwinia carotovora [3]): 0.53 ± 0.0 µM
Minimum microbicidal concentration, Pseudomonas syringae pv. tabaci [4]: 0.52 ± 0.0 µM
Minimum microbicidal concentration, Bacillus cereus (Bacillus cereus [5]): 8.37 ± 0.0 µM
Minimum microbicidal concentration, Pseudomonas aeruginosa (Pseudomonas aeruginosa [6]): 0.52 ± 0.0 µM
Minimum microbicidal concentration, Xanthomonas campestris (Xanthomonas campestris [7]): 0.53 ± 0.0 µM
Minimum microbicidal concentration, Bacillus subtilis (Bacillus subtilis [8]): 0.033 ± 0.0 µM
MIC (Escherichia coli [9]; Escherichia coli, ATCC25922, 24 h, read-out: Minimum inhibitory concentration, Escherichia coli): 0.52 µM (≈ 0.248 µg/mL)
MIC (Staphylococcus aureus [10]; Staphylococcus aureus, ATCC25923, 24 h, read-out: Minimum inhibitory concentration, Staphylococcus aureus): 0.26 µM (≈ 0.124 µg/mL)
MIC (Bacillus subtilis [11]; Bacillus subtilis, ATCC23857, 24 h, read-out: Minimum inhibitory concentration, Bacillus subtilis): 0.033 µM (≈ 0.0158 µg/mL)
MIC (Erwinia carotovora [12]; Pectobacterium carotovorum, read-out: Minimum inhibitory concentration, Erwinia carotovora): 0.53 µM (≈ 0.253 µg/mL)
MIC (Xanthomonas campestris [13]; Xanthomonas campestris, read-out: Minimum inhibitory concentration, Xanthomonas campestris): 0.53 µM (≈ 0.253 µg/mL)
MIC (Pseudomonas aeruginosa [14]): 0.13 µM (≈ 0.0621 µg/mL)
MIC (Bacillus cereus [15]; Bacillus cereus, ATCC14579, 24 h, read-out: Minimum inhibitory concentration, Bacillus cereus): 8.37 µM (≈ 4 µg/mL)
MIC ([16]; Pseudomonas syringae, read-out: Minimum inhibitory concentration, Pseudomonas syringae pv. tabaci): 0.52 µM (≈ 0.248 µg/mL)

FFGHIWHGARTLFRDVFA-NH2 [Cs02]
Hemolytic activity of human red blood cells (%) SC50 (human red blood cells): >128 µM
Minimum inhibitory concentration, Rhizoctonia solani (Rhizoctonia solani): 32.0 µM
Minimum inhibitory concentration, Fusarium oxysporum f.sp. vasinfectum [17]: 13.33 ± 4.61 µM
Minimum inhibitory concentration, Fusarium solani (Fusarium solani): 8.0 µM
Minimum inhibitory concentration, Escherichia coli (Escherichia coli [9]; ATCC 25922, Mueller-Hinton, 37 °C, 24 h, start 5.0 x 10^5 cells, 256-0.5 µM, mean ± SD of 3 biological repetitions (SD 0 not displayed), N/A = no antimicrobial activity observed): 8.0 µM
Minimum inhibitory concentration, Fusarium oxysporum (Fusarium oxysporum): 16.0 µM
Minimum inhibitory concentration, Staphylococcus aureus (Staphylococcus aureus [10]; ATCC 25923, Mueller-Hinton, 37 °C, 24 h, start 5.0 x 10^5 cells, 256-0.5 µM, mean ± SD of 3 biological repetitions (SD 0 not displayed), N/A = no antimicrobial activity observed): 8.0 µM
Minimum inhibitory concentration, Bacillus subtilis (Bacillus subtilis [11]; ATCC 23857, Mueller-Hinton, 37 °C, 24 h, start 5.0 x 10^5 cells, 256-0.5 µM, mean ± SD of 3 biological repetitions (SD 0 not displayed), N/A = no antimicrobial activity observed): 3.33 ± 1.15 µM
Minimum inhibitory concentration, Trichoderma asperellum (Trichoderma asperellum): 8.0 µM
Minimum inhibitory concentration, Erwinia carotovora (Erwinia carotovora [12]; [18]): 32.0 µM
Minimum inhibitory concentration, Xanthomonas campestris (Xanthomonas campestris [13]; pv. citri, Mueller-Hinton, 28 °C, start 5.0 x 10^5 cells, 256-0.5 µM, mean ± SD of 3 biological repetitions (SD 0 not displayed), N/A = no antimicrobial activity observed): 32.0 µM
Minimum inhibitory concentration, Cryptococcus neoformans (Cryptococcus neoformans): 32.0 µM
Minimum inhibitory concentration, Ramularia areola (Ramularia areola): 16.0 µM
Minimum inhibitory concentration, Candida albicans (Candida albicans): 32.0 µM
Minimum inhibitory concentration, Bacillus cereus (Bacillus cereus [15]; ATCC 14579, Mueller-Hinton, 37 °C, 24 h, start 5.0 x 10^5 cells, 256-0.5 µM, mean ± SD of 3 biological repetitions (SD 0 not displayed), N/A = no antimicrobial activity observed): 64.0 µM
Minimum inhibitory concentration, Pseudomonas syringae pv. tabaci [16, 18]: 4.0 µM
